Legend:
wheat seeds [1] = test: In planta Agrobacterium (LBA4404, pIG121-1) transformation of wheat seeds under application of a plant growth-inhibiting hormone; format: in vivo, wheat (Triticum aestivum L.); details: for Transformation efficiency (T0 generation×T1 generation): hormone 100 μM in bacterial solution, variety Yumechikara, shoot length about 2 mm, soaked about 20 min, co-culture 22° C. 2 days
Procedure: Transformation efficiency for the transformed plant thus obtained can be determined. Transformation efficiency (T0 generation×T1 generation) is determined by multiplying transformation efficiency for the T0 generation (the number of transformed plants of T0 generation/the number of plants subjected to transformation) and transformation efficiency for the T1 generation (the number of transformed plants of T1 generation/(the number of plants of T1 generation subjected to the verification for incorporation of foreign genes into genomes).
The Agrobacterium into which pIG121-1 had been introduced prepared above were cultured in LB medium containing kanamycin and streptomycin (50 mg/1 each) at 28° C. for 18 hours to prepare an Agrobacterium solution. Through this culture, the transformed Agrobacterium carrying pIG121-1 were selected on the basis of functions of the kanamycin resistance gene and the streptomycin resistance gene existing outside the T-DNA region of pIG121-1.
Abscisic acid (final concentration: 100 μM) was added to the bacterial solution prepared in the manner described above, and the resulting bacterial solution was used below as an Agrobacterium solution for inoculation.
Pretreatment of seeds was carried out by soaking wheat seeds (variety: Yumechikara (Wheat Nourin 172)) in 70% ethanol for 5 minutes, followed by shaking in a 20% antiformin solution for 10 minutes. The seeds were washed with water to remove the antiformin solution, wrapped in moistened Kim towel, and then cultured at 25° C. for 36 to 40 hours for germination.
Subsequently, a portion around the shoot of the seed (shoot length: about 2 mm) was pierced with a needle (diameter: 0.71 mm) to a depth of about 1 mm to provide a pore. The seeds with thus wounded meristems were soaked in the Agrobacterium solution prepared above for about 20 minutes to inoculate the seeds with the Agrobacterium. Thereafter, the seeds were removed from the Agrobacterium solution, mounted on moistened Kim towel, and then cultured in a covered petri dish at 22° C. for 2 days (co-culture). Thus, the seeds were infected with Agrobacterium. Next, in order to disinfect Agrobacterium, the co-cultured seeds were soaked in an aqueous solution of cefotaxime (1,000 ppm) and then shaken at room temperature for 2 hours. Subsequently, the seeds were removed from the aqueous solution of cefotaxime, mounted on moistened Kim towel, and then grown in a covered petri dish at 25° C. for 2 days. The seeds were transferred to a pot containing culture soil and then grown at 25° C. under the long-day conditions (a light period of 16 hours and a dark period of 8 hours).
When the seeds grew to the 5- to 6-leaf stage, genome PCR was carried out to select transformants.
Considering that Yumechikara is an autumn wheat variety, the obtained transformants were subjected to vernalization at 4° C. for 1.5 months to facilitate flower bud formation. Subsequently, the transformants (T0 generation) were self-crossed to obtain T1 seeds, and gene introduction and gene expression in the T1 generation were verified.
Gene introduction at the T1 generation was verified via genome PCR under the same conditions as with the case of the T0 generation. […] A band of interest was detected in 3 of the 14 individuals subjected to the genome PCR.
Jasmonic acid (final concentration: 100 μM) was added to the bacterial solution prepared in the manner described above, and the resulting bacterial solution was used below as an Agrobacterium solution for inoculation.
Subsequently, a portion around the shoot of the seed (shoot length: about 2 mm) was pierced with a needle (diameter: 0.71 mm) to a depth of about 1 mm to provide a pore. The seeds with thus wound meristems were soaked in the Agrobacterium solution prepared above for about 20 minutes to inoculate the seeds with the Agrobacterium. […]

[2] = test system: soybeans, variety "Toyomusume"; test: In planta Agrobacterium (LBA4404, pIG121-1) transformation of soybean axillary buds with abscisic acid; format: in vivo, soybean (Glycine max); details: abscisic acid 100 μM, axillary buds of plants 14 days after germination
Procedure: Plant transformation was carried out in the same manner as in Example 1, except that a variety “Toyomusume” of soybeans was used and axillary buds of the plants 14 days after germination were inoculated with Agrobacterium, and then gene introduction and gene expression in the T0 generation were verified.

[3] = test system: soybeans, variety "Toyomusume"; test: In planta transformation of soybeans using the Agrobacterium tumefaciens M21 mutant with abscisic acid; format: in vivo, soybean (Glycine max); details: abscisic acid 100 μM
Procedure: Plant transformation was carried out in the same manner as in Example 8, except that the Agrobacterium tumefaciens M21 mutant was used, and then gene introduction in the T0 generation was verified.
The Agrobacterium tumefaciens M21 mutant (hereafter referred to as “the M21 mutant”) was obtained via mutation of the Agrobacterium tumefaciens A208 strain (C58 chromosome, nopaline T37 pTi) with the use of transposon 5 (Tn5) (Majumder, P. et al., J. Biosci. Bioeng., 90: 328-331, 2000; WO 2005/024034). In the M21 mutant, Tn5 is inserted into the tryptophan monooxygenase gene involved in biosynthesis of indoleacetic acid (IAA) in the T-DNA region of the Ti plasmid. This would cause hormone imbalance in plants transformed via infection with the M21 mutant, which would lead to phenotypic changes. Thus, the presence or absence of the transformation was easily determined via visual inspection.
Transformation efficiency (T0 generation) achieved by the method of the present invention was 75%.

maize seed = test: In planta transformation of maize seeds using pIG121-1-carrying Agrobacterium with abscisic acid; format: in vivo, maize (Zea mays); details: abscisic acid 100 μM
Procedure: Seeds of maize (Zea mays) were washed with sterile water 2 or 3 times to wash the red disinfectant away from the seed coat. The washed seeds were soaked in sterile water and incubated at 25° C. for 2 days. Water was exchanged with fresh water once during incubation. Thus, the seeds absorbed water and the embryonic portions became white. These seeds were used for the experiment described below. A bacterial solution containing pIG121-1-carrying Agrobacterium and abscisic acid (final concentration: 100 μM) was prepared as an Agrobacterium solution for inoculation in the same manner as in Example 1.
With the use of a needle (φ 0.71 mm), the shoot (length: 1 mm) of the embryo (longer diameter: about 1 cm) of the maize seed was pierced 4 times on the apex, in which the meristem was considered to be present, to a depth of 0.5 mm to 1 mm to provide 4 pores in an area of about 2 mm square. Thereafter, the Agrobacterium solution for inoculation prepared above was applied dropwise to the pores using a pipette to inoculate the seeds with Agrobacterium.
Subsequently, a filter paper was placed in a petri dish and moistened with water. The maize seeds inoculated with Agrobacterium were placed on the filter paper and the petri dish was covered. The petri dish was then placed in an incubator at 25° C., and incubation was carried out in the dark for 2 days. After co-culture was conducted for 2 days, the seeds were sowed in culture soil and grown.
Gene introduction in the T0 generation was verified in the same manner as in Example 1. Plants (5-leaf stage) 20 days after transformation were used for genomic PCR. […] A 544-bp PCR product indicating GUS gene introduction was detected in 2 plants.

wheat seeds [4] = test: In planta Agrobacterium (LBA4404, pIG121-1) transformation of wheat seeds under application of a plant growth-inhibiting hormone; format: in vivo, wheat (Triticum aestivum L.)
[5] = abscisic acid 100 μM, Yumechikara, shoot about 2 mm, co-culture 22° C., genome PCR
[6] = 12 plants subjected to transformation
[7] = 13 plants subjected to transformation

Structure (SMILES) | Transformation efficiency (T0) (wheat seeds [1]; [5]) [%] | Transformation efficiency (T1) (wheat seeds [1]; [5]) [%] | Individuals with band of interest, T1 generation (wheat seeds [1]; abscisic acid 100 μM, of the 14 individuals subjected to genome PCR) | Individuals with GUS gene band (544 bp), T0 generation (wheat seeds [1]; abscisic acid 100 μM, of the 14 transformed individuals, genome PCR) | Transformation efficiency (T0 generation×T1 generation) (wheat seeds [1]) [%] | Transformation efficiency (T0 generation) [2] [%] | Number of transformed plants [3, 6] | Number of untransformed plants [3, 6] | Untransformed plants, percent [3, 6] [%] | Transformation efficiency (T0 generation) ([3]; axillary buds, tumorigenesis by visual inspection, 12 plants) [%] | Number of untransformed plants (maize seed; [7]) | Untransformed plants, percent (maize seed; [7]) [%] | Number of transformed plants (maize seed; 13 plants subjected to transformation, 544-bp GUS PCR product) | Transformation efficiency (T0 generation) (maize seed; shoot 1 mm pierced 4 times, co-culture 25° C. 2 days, genomic PCR 20 days after transformation, 13 plants) [%] | Transformation efficiency (T0 generation×T1 generation) (wheat seeds [4]; abscisic acid 100 μM and Tween 20 0.1%, Yumechikara, shoot 1 mm or less, vacuum treatment 20 min, co-culture 28° C.) [%] | Transformation efficiency (T0 generation×T1 generation) (wheat seeds [4]; abscisic acid 100 μM, Tween 20 0.1%, acetosyringone 100 μM, Yumechikara, shoot 1 mm or less, vacuum treatment, co-culture 28° C.) [%] | Transformation efficiency (T0 generation×T1 generation) (wheat seeds [4]; as Example 4 (abscisic acid 100 μM, Tween 20, acetosyringone, vacuum, 28° C.) but wheat variety Haruyokoi) [%] | Transformation efficiency (T0 generation×T1 generation) (wheat seeds [4]; as Example 4 but 10 μM abscisic acid, Yumechikara) [%] | Transformation efficiency (T0 generation×T1 generation) (wheat seeds [4]; as Example 4 but 300 μM abscisic acid, Yumechikara) [%]
CC1=CC(=O)CC(C)(C)[C@@]1(O)/C=C/C(C)=C\C(=O)O [abscisic acid] | 14.3 | 21.4 | 3 | 2 | 3.1 | 30 | 9 | 3 | 25 | 75 | 11 | 84.6 | 2 | 15.4 | 5.1 | 7.2 | 10.2 | 6.3 | 7.0
CC/C=C\C[C@H]1C(=O)CC[C@@H]1CC(=O)O [jasmonic acid] |  |  |  |  | 2.4 |  |  |  |  |  |  |  |  |  |  |  |  |  | 

From patent publication US10550399B2, “Plant transformation method using plant growth inhibiting hormone” (KANEKA CORPORATION, priority 2012, dated 2020)
